From patent US20100168135A1, “Method of Inducing Cleavage of Amyloid Precursor Protein to Form a Novel Fragment” (priority 2008, published 2010)

Experiments:
[1] = system: Senescence Accelerated Mouse 8 (SAMP8); details: cited from earlier work
[2] = system: rodent models of learning and memory; details: cited from earlier work
[3] = system: APP C-terminal fragments in the brains of 3xTg-AD mice; assay: Western blot of brains with antibody 1565-1, 2.5-month treatment (Example 8); format: in vivo, mouse; details: antibody 1565-1, 3xTg-AD mice, 5 mg/kg/day for 2.5 months
Procedure: 3xTg-AD mice of approximately 12 months of age were treated for 2.5 months with ST101. An average dose of 5 mg/kg/day was administered in drinking water (calculated dose, based on mean water consumption).
FIG. 8 is a Western blot that depicts C-terminal fragments detected by antibody 1565-1 (Epitomics Inc.) in the brains of ST101-treated (S) 3xTg-AD mice, relative to untreated (C) 3xTg mice-AD.

acetylcholine (ACh) = assay: Nicotine-stimulated release of acetylcholine
[4] = system: APP and C-terminal fragments in the brains of 3xTg-AD mice; assay: Western blot of brain extracts with antibody CT20, 2-month treatment (Examples 4 and 5); format: in vivo, mouse; details: antibody CT20, brains of 3xTg-AD mice, 5 mg/kg/day for 2 months
Procedure: (§1) 3xTg-AD mice of approximately one year of age were treated for 2 months with ST101. An average dose of 5 mg/kg/day was administered in drinking water (calculated dose, based on mean water consumption). Behavioral effects were tested by assessing performance on the Morris Water Maze. Biochemical effects were examined by measuring brain content of Aβ and APP by ELISA and Western Blot.
To attempt to determine at what part in the Aβ processing/release pathway ST101 may be active, a series of Western blot analyses of brain extracts from the same mice were conducted. These Westerns blots examined intact APP as well as products of its post-translational processing and subsequent degradation.
FIG. 4 is a Western blot that depicts APP C-terminal fragments detected by antibody CT20 in the brains of ST101-treated (S) 3xTg-AD mice, relative to untreated (C) 3xTg mice-AD.
FIG. 5 is a Western blot that depicts APP and degradation fragments detected by antibody CT20 in the brains of ST101-treated (S) 3xTg-AD mice, relative to untreated (C) 3xTg-AD mice. “CT20” stands for full length APP species, and “Actin” stands for anti-beta-actin antibody as a protein loading control.

3xTg-AD mice = assay: Morris water maze in 3xTg-AD mice; format: in vivo, mouse
Procedure: as §1
Behavioral Effects: Performance of 3xTg-AD Mice in the Morris Water Maze (MWM), adapted from Roozendaal et al., Proc. Natl. Acad. Sci. U.S.A. 100: 1328-1333 (2003).
The MWM tests both spatial memory (i.e. hippocampus dependent) and cued learning (i.e. non-hippocampal) in rodents. The maze is a circular tank filled with opaque water. Mice are placed in the water and must swim to find and escape onto a platform submerged 1.5 cm beneath the surface of the water. The time (in seconds) required to find the platform is recorded. Animals rely on visual cues in the room containing the tank in order to find the platform on successive challenges. Training was conducted daily for seven consecutive days.
Retention of training was assessed twice, 24 and 72 hours after the final training trial. Animals were subjected to a 60-second free swim in the tank with the platform removed. Parameters measured included (1) latency: time required to reach the former platform location and (2) crosses: the number of times the animal swam across the former platform location.

N2a cells = assay: Aβ production by N2a cultured cells, ELISA of tissue culture medium; format: cell-based, murine; details: 24 hours treatment, vs control
Procedure: N2a is a murine neuroblastoma cell line that is known to produce amyloid peptides Aβ1-40 and Aβ1-42 in amounts measurable by ELISA assays. These forms of Aβ have been correlated with the pathology in AD brain and Aβ1-42 in particular is postulated to have the ability to block α7 nicotinic receptors and to produce direct neurotoxic effects. N2a cells were treated for 24 hours with ST101 added to the tissue culture medium. Tissue culture medium was collected and analyzed by ELISA for the presence of Aβ.
FIGS. 1A and 1B are bar graphs that depict the effect of the compound ST101 on Aβ production by N2a cells. FIG. 1A is a bar graph that depicts the Aβ concentration in the cell culture medium as a function of ST101 concentration compared to control. FIG. 1B a bar graph that depicts the ratio of Aβ1-42 to Aβ1-40 as a function of ST101 concentration compared to control.

[5] = system: extracellular ACh and dopamine; assay: Extracellular ACh and dopamine concentrations in cerebral cortex and hippocampus; format: in vivo
[6] = system: APP C-terminal fragments in the brains of 3xTg-AD mice; assay: Western blot of brains with antibody CT20, 10-month treatment (Example 7); format: in vivo, mouse; details: antibody CT20, 3xTg-AD mice, 5 or 1 or 0.1 mg/kg/day for 10 months; in some samples
Procedure: 3xTg-AD mice of approximately 3 months of age were treated for 10 months with ST101. An average dose of 5 or 1 or 0.1 mg/kg/day was administered in drinking water (calculated dose, based on mean water consumption).
FIGS. 7A-C are Western blots that depict APP C-terminal fragments detected by antibody CT20 in the brains of ST101-treated (S) 3xTg-AD mice, relative to untreated (C) 3xTg-AD mice.

[7] = 5 mg/kg/day for 2 months, at both 24 and 72 hours after training

O=C1N=C2C=CC=CN2C12Cc1ccccc1C2 [ST101, spiro(imidazo[1,2-a]pyridin-2(3H)-one-3,2′-indan)]
accumulation of Aβ-like deposits ([1]; brain tissue): decreased | learning and memory functions [1]: improvement | memory deficits induced by chemical amnesic agents ([2]; methamphetamine, MK-801, scopolamine): attenuates | age-impaired memory ([2]; rodent models): significantly improves | longer C-terminal fragment of about 17 kDa [3]: not observed | APP C99 fragment ([3]; vs untreated): disappearance or significant reduction | nicotine-stimulated release of acetylcholine (ACh) (acetylcholine (ACh)): potentiates | C83 C-terminal APP fragment ([4]; vs untreated): substantial decrease | C99 C-terminal APP fragment ([4]; vs untreated): substantial decrease | major APP degradation intermediate (~50 kDa) ([4]; vs untreated): disappearance or significant reduction | novel, longer C-terminal fragment of about 17 kDa ([4]; vs untreated): appearance | full-length APP species (band shifts) ([4]; some full-length species): slightly lowered molecular weight | crosses during retention testing (3xTg-AD mice; [7]): increases in crosses | latency during retention testing (3xTg-AD mice; [7]): reductions in latency | latency on successive days of the training (3xTg-AD mice; 5 mg/kg/day in drinking water for 2 months, vs controls): greater reductions in latency | Aβ1-40 in cell culture medium (N2a cells): without major effects | Aβ1-42 in cell culture medium (N2a cells): significantly reduced | extracellular ACh concentrations ([5]; cerebral cortex): increases | extracellular concentrations of ACh ([5]; hippocampus): increases | extracellular concentrations of dopamine ([5]; hippocampus): increases | major APP degradation intermediate (~50 kDa) [6]: disappearance or significant reduction | novel, longer C-terminal fragment of about 17 kDa [6]: appearance
